Measured values: ChEMBL document CHEMBL1781880, “Total synthesis and evaluation of 22-(3-azidobenzoyloxy)methyl epothilone C for photoaffinity labeling of beta-tubulin” (2009)
Active and inactive are the calls of the source. The calls are words filed in the database; no cut-off is given here.

Tests used:
[1] = Cytotoxicity against human NCI/ADR cells by phototoxicity labeling study; format: functional; settings: NCI/ADR-RES, light or radiation study, read-out: ED50 (the source's name)
[2] = Induction of microtubule assembly by photoaffinity labeling study in presence of epothilone B
MCF7 [3] = experiment: Cytotoxicity against human MCF7 cells by […] labeling study; format: functional; settings: MCF7, light or radiation study, read-out: ED50 (the source's name)
[4] = Ratio of ED50 for epothilone B to ED50 for compound for human NCI/ADR cells; format: functional
MCF7 [5] = experiment: Ratio of ED50 for epothilone B to ED50 for compound for human MCF7 cells; format: functional
[6] = Induction of microtubule assembly by photoaffinity labeling study
[7] = Ratio of ED50 for epothilone B to ED50 for compound for induction of microtubule assembly by photoaffinity labeling study

Structure (SMILES) | EC50 [1] | Activity [2] | EC50 (MCF7 [3]) | Ratio ED50 [4] | Ratio ED50 (MCF7 [5]) | ED50 [6] | Ratio ED50 [7]
C/C(=C\c1csc(C)n1)[C@@H]1C/C=C\CCC[C@H](C)[C@H](O)[C@@H](C)C(=O)[C@](C)(CCOC(=O)c2cccc(N=[N+]=[N-])c2)[C@@H](O)CC(=O)O1 | 1000 nM | inactive | 1200 nM | 833 | 632 | 5100 nM | 5.1
C/C(=C\c1csc(C)n1)[C@@H]1C[C@@H]2O[C@]2(C)CCC[C@H](C)[C@H](O)[C@@H](C)C(=O)C(C)(C)[C@@H](O)CC(=O)O1 [PATUPILONE] | 1.2 nM | – | 1.5 nM | – | – | 1000 nM | –
